The NIST ThermoML archive (doi:10.1016/j.jct.2008.12.014)
± gives the expanded uncertainty stated by the source.

Conditions: Liquid, Vibrating tube method

CC(C)O [propan-2-ol]
Conditions	mass density [kg/m3]
350.14 K, 220.4 kPa	731.92 ± 0.18
350.14 K, 663.4 kPa	732.49 ± 0.19
350.14 K, 1071.2 kPa	733.03 ± 0.19
350.14 K, 1412.6 kPa	733.49 ± 0.2
350.14 K, 1844.7 kPa	734.07 ± 0.2
350.14 K, 2226.7 kPa	734.58 ± 0.21
350.14 K, 2644.7 kPa	735.11 ± 0.21
350.14 K, 2842.7 kPa	735.41 ± 0.22
350.14 K, 3286.9 kPa	735.99 ± 0.22
350.14 K, 3630.7 kPa	736.45 ± 0.23
350.14 K, 4012.2 kPa	736.94 ± 0.23
350.14 K, 4394.6 kPa	737.43 ± 0.24
350.14 K, 4757.6 kPa	737.91 ± 0.24
350.14 K, 5197.9 kPa	738.48 ± 0.25
350.14 K, 5577.9 kPa	738.96 ± 0.25
350.14 K, 5939.3 kPa	739.42 ± 0.25
350.14 K, 6321.3 kPa	739.89 ± 0.26
350.14 K, 6730.9 kPa	740.41 ± 0.26
350.14 K, 7119.7 kPa	740.89 ± 0.27
350.14 K, 7564.4 kPa	741.45 ± 0.27
350.14 K, 7988.5 kPa	741.97 ± 0.28
350.14 K, 8472.5 kPa	742.55 ± 0.28
350.14 K, 8925.8 kPa	743.13 ± 0.29
350.14 K, 9280.8 kPa	743.56 ± 0.29
350.14 K, 9676.3 kPa	744.05 ± 0.3
375.01 K, 349.5 kPa	702.23 ± 0.2
375.01 K, 703.3 kPa	702.82 ± 0.21
375.01 K, 1046.8 kPa	703.38 ± 0.21
375.01 K, 1437.5 kPa	704.01 ± 0.22
375.01 K, 1791.6 kPa	704.58 ± 0.22
375.01 K, 2161.7 kPa	705.16 ± 0.23
375.01 K, 2545.7 kPa	705.76 ± 0.23
375.01 K, 2909.9 kPa	706.34 ± 0.24
375.01 K, 3364.1 kPa	707.04 ± 0.24
375.01 K, 3677.6 kPa	707.53 ± 0.25
375.01 K, 4083.2 kPa	708.16 ± 0.25
375.01 K, 4515.7 kPa	708.82 ± 0.26
375.01 K, 4853.5 kPa	709.33 ± 0.26
375.01 K, 5280.2 kPa	709.98 ± 0.27
375.01 K, 5646.9 kPa	710.53 ± 0.27
375.01 K, 6138.1 kPa	711.26 ± 0.28
375.01 K, 6447.1 kPa	711.73 ± 0.28
375.01 K, 6880.9 kPa	712.37 ± 0.29
375.01 K, 7269.8 kPa	712.94 ± 0.3
375.01 K, 7772.4 kPa	713.68 ± 0.3
375.01 K, 8119.2 kPa	714.18 ± 0.31
375.01 K, 8557.2 kPa	714.81 ± 0.31
375.01 K, 8987.3 kPa	715.42 ± 0.32
375.01 K, 9423.8 kPa	716.04 ± 0.32
375.01 K, 9842.2 kPa	716.64 ± 0.33
392.57 K, 407.6 kPa	679.26 ± 0.22
392.57 K, 888.7 kPa	680.18 ± 0.22
392.57 K, 1171.4 kPa	680.72 ± 0.23
392.57 K, 1526.6 kPa	681.39 ± 0.23
392.57 K, 1897.4 kPa	682.08 ± 0.24
392.57 K, 2272.3 kPa	682.77 ± 0.24
392.57 K, 2619.1 kPa	683.41 ± 0.25
392.57 K, 3050.4 kPa	684.2 ± 0.25
392.57 K, 3411.2 kPa	684.86 ± 0.26
392.57 K, 3835 kPa	685.63 ± 0.27
392.57 K, 4095.7 kPa	686.12 ± 0.27
392.57 K, 4524.9 kPa	686.89 ± 0.28
392.57 K, 4902.8 kPa	687.57 ± 0.28
392.57 K, 5283.5 kPa	688.24 ± 0.29
392.57 K, 5775.9 kPa	689.09 ± 0.29
392.57 K, 6039.6 kPa	689.55 ± 0.3
392.57 K, 6476.6 kPa	690.3 ± 0.3
392.57 K, 6889.7 kPa	691.01 ± 0.31
392.57 K, 7348 kPa	691.78 ± 0.32
392.57 K, 7728 kPa	692.42 ± 0.32
392.57 K, 8172.7 kPa	693.17 ± 0.33
392.57 K, 8598.3 kPa	693.88 ± 0.33
392.57 K, 9018.5 kPa	694.57 ± 0.34
392.57 K, 9405 kPa	695.2 ± 0.34
392.57 K, 9837.9 kPa	695.89 ± 0.35
